{
  "source": "patent US20240409501A1",
  "about": "“CYRSTALLINE FORMS OF RIP1 INHIBITOR” (SIRONAX LTD., priority 2021, published 2024)",
  "assay_type_in_all_cases": "physicochemical",
  "key": {"[1]": {"assay": "Approximate solubility in 20 solvent systems at RT", "procedure": "Approximate solubility of N-(3,5-difluorobenzyl)-N-hydroxy-2,2-dimethylbutanamide (817506-01-A) was measured in 20 solvent systems at RT. Approximately 2 mg of the sample was added into a 3-mL glass vial. Solvents as shown in Table 36 were then added stepwise (50/50/200/700/1000 μL) into the vials until the solids were dissolved visually or a total volume of 2 mL was reached. Solubility results summarized in Table 36 were used to guide the solvent selection in preparing the solid forms as disclosed herein."}, "[2]": {"assay": "Equilibrium solubility of Type A in H2O at RT", "procedure": "Equilibrium solubility of Type A in H2O was measured at RT. Specifically, 10.0 mg of a Type A sample (817506-48-A2) was suspended into 1 mL of H2O (˜1000 rpm) at RT. After 24 hrs, the suspension was centrifuged (10000 rpm, 5 min, RT) followed by filtration (0.45 μm PTFE membrane). The supernatant (first few drops were discarded) was analyzed for HPLC solubility and pH, and the residual solids were used for XRPD analysis.\n(§1) An Agilent 1290 UPLC with DAD detector and Agilent 1260 HPLC with VWD detector were use and detailed chromatographic conditions for purity and solubility analysis are listed in Table 42 and Table 43."}, "[3]": {"assay": "Solid state stability (XRPD, DSC, HPLC after storage)", "details": "for % of Initial: HPLC purity", "procedure": "To evaluate the solid state stability, a Type A sample (817506-48-A2) was stored under 80° C. for one day, and 25° C./60% RH and 40° C./75% RH for one week each. […] DSC characterization results were shown from FIG. 35 to FIG. 37. Only one endotherm at about 95° C. was observed, indicating the solids under all the conditions were pure Type A.\nas §1"}, "[4]": {"assay": "Photo stability under white light and ultraviolet (ICH guideline)", "procedure": "Photo stability of Type A (817506-48-A2) was assessed under both white light (1,200,000 Lux-hrs) and ultraviolet (200 W·hrs/m^2) conditions according to the ICH guideline. […] Only an endotherm at about 95° C. was observed on the DSC curves (FIGS. 42-43)."}, "[5]": {"assay": "Hygroscopicity, DVS isotherm at 25° C. between 0 and 95% RH", "procedure": "To investigate the solid from stability as a function of humidity, a DVS isotherm plot of Type A (817506-48-A2) was collected at 25° C. between 0 and 95% RH. […] (onset) after the DVS test.\nDVS was measured Via an SMS (Surface Measurement Systems) DVS Intrinsic. The relative humidity at 25° C. was calibrated against deliquescence point of LiCl. Mg(NO3)2 and KCl."}, "[6]": {"assay": "Form conversion of Type C on vacuum drying (XRPD)", "details": "vacuum dried at 50° C.", "source_text": "Type C of N-(3,5-difluorobenzyl)-N-hydroxy-2,2-dimethylbutanamide (817506-10-A10) was obtained via liquid vapor diffusion of a DMSO solution of a starting material (817506-01-A) in H2O atmosphere."}, "[7]": {"details": "White light (1,200,000 Lux-hrs)"}},
  "note": "“Also recorded” adds a separate entry of the source.",
  "data": [
    {"molecule": "CCC(C)(C)C(=O)N(O)Cc1cc(F)cc(F)c1", "note": "[N-(3,5-difluorobenzyl)-N-hydroxy-2,2-dimethylbutanamide]", "values": [
      {"measurement": "solubility", "setting": "[1]; organic solvent or mixture, thermodynamic from solid, 1,4-Dioxane, RT", "result": "> 46", "unit": "mg/mL"},
      {"measurement": "solubility", "setting": "[1]; organic solvent or mixture, thermodynamic from solid, 2-MeTHF, RT", "result": "2.2 to 7.3", "unit": "mg/mL"},
      {"measurement": "solubility", "setting": "[1]; organic solvent or mixture, thermodynamic from solid, ACN, RT", "result": "> 50", "unit": "mg/mL"},
      {"measurement": "solubility", "setting": "[1]; organic solvent or mixture, thermodynamic from solid, Acetone, RT", "result": "> 46", "unit": "mg/mL"},
      {"measurement": "solubility", "setting": "[1]; organic solvent or mixture, thermodynamic from solid, CHCl3, RT", "result": "> 50", "unit": "mg/mL"},
      {"measurement": "solubility", "setting": "[1]; organic solvent or mixture, thermodynamic from solid, DCM, RT", "result": "> 50", "unit": "mg/mL"},
      {"measurement": "solubility", "setting": "[1]; organic solvent or mixture, thermodynamic from solid, DMAc, RT", "result": "21 to 42", "unit": "mg/mL"},
      {"measurement": "solubility", "setting": "[1]; organic solvent or mixture, thermodynamic from solid, DMSO, RT", "result": "> 42", "unit": "mg/mL"},
      {"measurement": "solubility", "setting": "[1]; organic solvent or mixture, thermodynamic from solid, EtOAc, RT", "result": "> 44", "unit": "mg/mL"},
      {"measurement": "solubility", "setting": "[1]; organic solvent or mixture, thermodynamic from solid, EtOH, RT", "result": "> 40", "unit": "mg/mL"},
      {"measurement": "solubility", "setting": "[1]; organic solvent or mixture, thermodynamic from solid, IPA, RT", "result": "> 42", "unit": "mg/mL"},
      {"measurement": "solubility", "setting": "[1]; organic solvent or mixture, thermodynamic from solid, IPAC, RT", "result": "> 50", "unit": "mg/mL"},
      {"measurement": "solubility", "setting": "[1]; organic solvent or mixture, thermodynamic from solid, MIBK, RT", "result": "> 50", "unit": "mg/mL"},
      {"measurement": "solubility", "setting": "[1]; organic solvent or mixture, thermodynamic from solid, MTBE, RT", "result": "2.3 to 7.7", "unit": "mg/mL"},
      {"measurement": "solubility", "setting": "[1]; organic solvent or mixture, thermodynamic from solid, MeOH, RT", "result": "> 46", "unit": "mg/mL"},
      {"measurement": "solubility", "setting": "[1]; organic solvent or mixture, thermodynamic from solid, NMP, RT", "result": "2.4 to 48", "unit": "mg/mL"},
      {"measurement": "solubility", "setting": "[1]; organic solvent or mixture, thermodynamic from solid, THF, RT", "result": "25 to 50", "unit": "mg/mL"},
      {"measurement": "solubility", "setting": "[1]; organic solvent or mixture, thermodynamic from solid, Toluene, RT", "result": "20 to 40", "unit": "mg/mL"},
      {"measurement": "solubility", "setting": "[1]; organic solvent or mixture, thermodynamic from solid, n-Heptane, RT", "result": "< 1", "unit": "mg/mL"},
      {"measurement": "solubility", "setting": "[1]; water, thermodynamic from solid, H2O, RT", "result": "< 1.3", "unit": "mg/mL"}
    ]},
    {"molecule": "CCC(C)(C)C(=O)N(O)Cc1cc(F)cc(F)c1", "note": "[Type A, N-(3,5-difluorobenzyl)-N-hydroxy-2,2-dimethylbutanamide]", "values": [
      {"measurement": "Form change", "setting": "[2]; after suspending in H2O at RT for about 24 hrs, XRPD of residual solids", "result": "no crystalline type change and no form change and No"},
      {"measurement": "pH", "setting": "[2]; supernatant after suspension in H2O at RT for 24 hrs", "result": 8.7},
      {"measurement": "solubility at 24 h", "setting": "[2]; water, thermodynamic from solid, equilibrium solubility in H2O, RT, 24 hrs, HPLC", "result": "~0.15", "unit": "mg/mL"},
      {"measurement": "Final Form", "setting": "[3]; 25° C./60% RH/1 w", "result": "Type A"},
      {"measurement": "% of Initial", "setting": "[3]; 25° C./60% RH/1 w", "result": 100.0, "unit": "%"},
      {"measurement": "Final Form", "setting": "[3]; 40° C./75% RH/1 w", "result": "Type A"},
      {"measurement": "% of Initial", "setting": "[3]; 40° C./75% RH/1 w", "result": 100.0, "unit": "%"},
      {"measurement": "Final Form", "setting": "[3]; 80° C./1 d", "result": "Type A"},
      {"measurement": "% of Initial", "setting": "[3]; 80° C./1 d", "result": 100.0, "unit": "%"},
      {"measurement": "form change or decrease in purity", "setting": "[3]; all conditions: 80° C. one day, 25° C./60% RH and 40° C./75% RH one week each", "result": "No crystalline form change or HPLC purity decrease; also recorded: No form change or decrease in purity"},
      {"measurement": "Form", "setting": "[4]; UV (200 W·hrs/m^2)", "result": "Type A"},
      {"measurement": "Purity (area %)", "setting": "[4]; UV (200 W·hrs/m^2)", "result": 100.0, "unit": "area %"},
      {"measurement": "Form", "setting": "[4]; [7]", "result": "Type A"},
      {"measurement": "Purity (area %)", "setting": "[4]; [7]", "result": 100.0, "unit": "area %"},
      {"measurement": "form change after photo stability evaluation", "setting": "[4]; both white light and ultraviolet, XRPD and DSC", "result": "No crystalline form change or HPLC purity decrease; also recorded: no form change"},
      {"measurement": "purity decrease after photo stability evaluation", "setting": "[4]; white light and ultraviolet, HPLC", "result": "no purity decrease"},
      {"measurement": "water uptake (DVS plot)", "setting": "[5]; 25° C./80VRH", "result": 0.1, "unit": "%"},
      {"measurement": "water uptake (DVS)", "setting": "[5]; 80% RH/25° C.", "result": "about 0.10%"},
      {"measurement": "hygroscopicity", "setting": "[5]; DVS at 25° C.", "result": "non-hygroscopic"},
      {"measurement": "form change after the DVS test", "setting": "[5]; XRPD before and after DVS", "result": "no form change"}
    ]},
    {"molecule": "CCC(C)(C)C(=O)N(O)Cc1cc(F)cc(F)c1", "note": "[Type C, N-(3,5-difluorobenzyl)-N-hydroxy-2,2-dimethylbutanamide]", "values": [
      {"measurement": "form after drying", "setting": "[6]", "result": "converted to Type A"}
    ]}
  ]
}
